Assay results taken from publication PMC10726440, “N-Biphenyl Pyrrolinones and Dibenzofurans as RNA-Binding Protein LIN28 Inhibitors Disrupting the LIN28–Let-7 Interaction” (ACS Medicinal Chemistry Letters, 2023).
“And” between values parts separate entries of the source, which are not always exact repeats. Identical values can stand only once. Like-named read-outs stand apart in the source and are kept apart here.

How the values were obtained:
[1] = biological target: T1, LIN28A (16-126) CSD protein (Homo sapiens, UniProt Q9H9Z2); assay: Nano differential scanning fluorimetry (nanoDSF) thermal shift; type: binding; conditions: compound at 75 μM
T1 construct: incubated with LIN28A (16-126) CSD protein; pET19a or pMAL vector) (cleaved yes); made in house; host or cells: Escherichia coli BL21(DE3)
T1 sequence (Q9H9Z2 16-126): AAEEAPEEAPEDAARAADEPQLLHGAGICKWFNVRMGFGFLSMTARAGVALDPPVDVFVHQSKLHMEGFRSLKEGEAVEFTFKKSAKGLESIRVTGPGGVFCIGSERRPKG
Protocol: Nano differential scanning fluorimetry (nanoDSF)
Compounds (final concentration 75 µM) were incubated with LIN28A (16-126) CSD protein
for 45 minutes at room temperature in a buffer containing 30 mM NaH2PO4, 50 mM NaCl and
1 mM MgCl2 at pH 8.0. Thermal protein stability was determined using NanoTemper
Prometheus NT.48 with a temperature ramp from 20 °C to 90 °C increasing the temperature by
1 °C per minute. Melting temperatures were determined using the software of the device. […]
Master Mix II, with UNG (A pplied Biosystems) and a CFX Connect Real -Time PCR System

[2] = biological target: T2, LIN28A(16–187)–let-7 interaction (Homo sapiens, UniProt Q9H9Z2); assay: Electrophoretic mobility shift assay (EMSA), disruption of LIN28–let-7 complex; type: binding; conditions: for IC50: concentration-dependent EMSA, some values estimated, read-out: IC50 in dose–response EMSA; for inhibition at 75 µM: read-out: inhibition of the LIN28–let-7 interaction measured in EMSA
T2 construct: LIN28A(16–187) or LIN28B(24–111); pET19a or pMAL vector) (cleaved yes); made in house; host or cells: Escherichia coli BL21(DE3)
T2 sequence (Q9H9Z2 16-187): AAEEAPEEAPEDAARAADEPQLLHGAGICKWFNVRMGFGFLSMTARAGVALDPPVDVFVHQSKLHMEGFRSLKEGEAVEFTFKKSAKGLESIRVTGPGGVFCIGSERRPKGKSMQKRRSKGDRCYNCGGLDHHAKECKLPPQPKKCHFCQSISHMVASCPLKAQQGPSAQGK
Protocol: Inhibition of the LIN28–let-7 complex was evaluated by electrophoretic mobility shift assays. Mixtures containing compound at indicated concentrations, LIN28A(16–187) or LIN28B(24–111), and recombinant ribonuclease inhibitor (TaKaRa Bio) were incubated at room temperature for 2 h. The reaction buffer contained 50 mM TRIS, pH 7.5, 100 mM NaCl, 10 mM β-mercaptoethanol, 50 μM ZnCl2, 2% DMSO, 0.01% Tween-20 and 12% glycerol. Cy-3-fluorophore labeled RNA, (pre-E let-7f-1-Cy3, Mus musculus, […]-Cy3, purchased from IDT) was added to the reaction and incubated for further 15 min. The final concentrations were as follows: 10 nM LIN28A or 200 nM LIN28B, 5 nM RNA. Of each mixture, 10 μL was analyzed on a nondenaturing PAGE (5.3% acrylamide TAE PAGE for full-length LIN28 and 10% acrylamide TAE PAGE for analysis of the CSD) prerun for 1 h without sample and run for 1 h at 220 V at 4 °C in 0.25× TAE buffer. Gels were imaged using a ChemiDoc MP instrument (Bio-Rad Laboratories). Band intensities were analyzed using ImageJ and inhibition was quantified by calculation of the ratio of free RNA fluorescence to the fluorescence of the protein–RNA complex, and normalization to free RNA and LIN28–let-7 complex controls. The intensity ratio was analyzed by nonlinear regression fit in GraphPad Prism to determine the IC50 values.

SMILES	IC50 [2]	inhibition at 75 µM ([2]; single concentration of 75 μM) [%]	further results
O=C(C1=C(O)C(=O)N(c2ccc(O)c(C(=O)O)c2)[C@H]1c1ccc([N+](=O)[O-])cc1)c1ccc(Cl)cc1 [Compound 17]	–	–	inhibition of the LIN28–let-7 interaction measured in EMSA ([2]; single concentration of 75 μM): none of these aforementioned enantiomerically pure molecules were active
O=C(C1=C(O)C(=O)N(c2cccc(-c3ccccc3)c2)C1c1ccc([N+](=O)[O-])cc1)c1ccc(Br)cc1 (stereo not drawn) [Compound 30]	–	73	–
O=C(C1=C(O)C(=O)N(c2ccc(O)c(C(=O)O)c2)C1c1ccc([N+](=O)[O-])cc1)c1ccccc1 (stereo not drawn) [Compound 2]	–	–	inhibition of the LIN28–let-7 interaction measured in EMSA ([2]; single concentration of 75 μM): not active
O=C(C1=C(O)C(=O)N(c2cccc(-c3ccccc3)c2)C1c1ccc([N+](=O)[O-])cc1)c1ccc([N+](=O)[O-])c(O)c1 (stereo not drawn) [Compound 34]	–	–	inhibition at 75 µM [2]: 49%
Cc1ccc(C(=O)C2=C(O)C(=O)N(c3ccc(O)c(C(=O)O)c3)C2c2ccc([N+](=O)[O-])cc2)cc1 (stereo not drawn) [Compound 3]	33 µM	≥ 60	–
O=C(C1=C(O)C(=O)N(c2cccc(-c3ccccc3)c2)C1c1ccc([N+](=O)[O-])cc1)c1ccccc1F (stereo not drawn) [Compound 33]	–	98	–
O=C(C1=C(O)C(=O)N(c2cccc([N+](=O)[O-])c2)[C@H]1c1ccc([N+](=O)[O-])cc1)c1ccccc1 [Compound 20]	–	–	inhibition of the LIN28–let-7 interaction measured in EMSA ([2]; single concentration of 75 μM): none of these aforementioned enantiomerically pure molecules were active
O=C(C1=C(O)C(=O)N(c2cccc(-c3ccccc3)c2)C1c1ccc([N+](=O)[O-])cc1)C1CCCCC1 (stereo not drawn) [Compound 24]	–	49	–
Cn1nnc2cc(C3C(C(=O)c4ccccc4)=C(O)C(=O)N3c3ccc(O)c(C(=O)O)c3)ccc21 (stereo not drawn) [Compound 8]	> 75 µM and ~90 µM	69.9	increase in thermal stability (melting temperature shift) of the LIN28 CSD [1]: less than 0.5 °C
O=C(C1=C(O)C(=O)N(c2ccc(O)c(C(=O)O)c2)C1c1ccc([N+](=O)[O-])cc1)c1ccccn1 (stereo not drawn) [Compound 4]	19 µM and ~19 µM	–	–
O=C(C1=C(O)C(=O)N(c2ccc(O)c(C(=O)O)c2)[C@@H]1c1ccc([N+](=O)[O-])cc1)c1ccc(Cl)cc1 [Compound 16]	–	–	inhibition of the LIN28–let-7 interaction measured in EMSA ([2]; single concentration of 75 μM): none of these aforementioned enantiomerically pure molecules were active
O=C(C1=C(O)C(=O)N(c2cccc(-c3ccccc3)c2)C1c1ccc([N+](=O)[O-])cc1)c1ccc(C(F)(F)F)cc1 (stereo not drawn) [Compound 39]	–	40	–
O=C(O)c1cc(N2C(=O)c3nn(Cc4ccccc4)c(-c4ccccc4)c3C2c2ccc([N+](=O)[O-])cc2)ccc1O (stereo not drawn) [Compound 14]	–	–	inhibition of the LIN28–let-7 interaction measured in EMSA ([2]; single concentration of 75 μM): inactive

The next lines start with results.

IC50 [2]	inhibition at 75 µM ([2]; single concentration of 75 μM) [%]	SMILES	further results
37 µM	–	O=C(C1=C(O)C(=O)N(c2cccc(-c3ccccc3)c2)[C@H]1c1ccc([N+](=O)[O-])cc1)c1ccccc1 [Compound 11S]	increase in thermal stability (melting temperature shift) of the LIN28 CSD [1]: ~1.9 °C
–	94	O=C(C1=C(O)C(=O)N(c2ccc3oc4ccccc4c3c2)C1c1ccc([N+](=O)[O-])cc1)c1ccccc1 (stereo not drawn) [Compound 40]	–
–	60	O=C(C1=C(O)C(=O)N(c2ccc3oc4ccccc4c3c2)C1c1ccc([N+](=O)[O-])cc1)c1ccc(F)cc1 (stereo not drawn) [Compound 43]	–
< 15 µM and 5 to 15 µM	84.1	Nc1ccc(C2C(C(=O)c3ccccc3)=C(O)C(=O)N2c2ccc(O)c(C(=O)O)c2)cc1 (stereo not drawn) [Compound 10]	–
34 µM	70.7	O=C(C1=C(O)C(=O)N(c2ccc(O)c(C(=O)O)c2)C1c1ccc2cn[nH]c2c1)c1ccccc1 (stereo not drawn) [Compound 7]	–
~45 µM	87	O=C(C1=C(O)C(=O)N(c2cccc(-c3ccccc3)c2)C1c1ccc([N+](=O)[O-])cc1)c1ccco1 (stereo not drawn) [Compound 35]	–
–	86	O=C(C1=C(O)C(=O)N(c2ccc3c(c2)oc2ccccc23)C1c1ccc([N+](=O)[O-])cc1)c1ccc(Br)cc1 (stereo not drawn) [Compound 46]	–
24 µM	–	O=C(C1=C(O)C(=O)N(c2cccc(-c3ccccc3)c2)[C@@H]1c1ccc([N+](=O)[O-])cc1)c1ccccc1 [Compound 11R]	increase in thermal stability (melting temperature shift) of the LIN28 CSD [1]: ~1.9 °C
–	74	COc1ccc(C(=O)C2=C(O)C(=O)N(c3ccc4oc5ccccc5c4c3)C2c2ccc([N+](=O)[O-])cc2)cc1 (stereo not drawn) [Compound 42]	–
< 15 µM and 5 to 15 µM	76.5	O=C(C1=C(O)C(=O)N(CCCc2ccccc2)C1c1ccc([N+](=O)[O-])cc1)c1ccccc1 (stereo not drawn) [Compound 12]	inhibition of the LIN28–let-7 interaction measured in EMSA ([2]; single concentration of 75 μM, 75 µM): 77%
–	97	O=C(C1=C(O)C(=O)N(c2ccc3c(c2)oc2ccccc23)C1c1ccc([N+](=O)[O-])cc1)c1ccccc1 (stereo not drawn) [Compound 45]	inhibition of LIN28–let-7 complex formation in concentration-dependent EMSA (in words) ([2]; dose–response EMSA): best inhibitory activities among the evaluated molecules
–	87	COc1ccc(C(=O)C2=C(O)C(=O)N(c3ccc4c(c3)oc3ccccc34)C2c2ccc([N+](=O)[O-])cc2)cc1 (stereo not drawn) [Compound 47]	–
